Numbering of substitutions follows the chain as printed. Where two headings read alike, the source gives them in different places.
How the values were obtained:
[1] = Irinotecan and metabolite AUC by ABCC2 3972C>T genotype in cancer patients
Excerpt: Sixty-four adults (48 Caucasians, 10 African-Americans, 4 Hispanics, and 2 others) with refractory solid tumors took part in the pharmacogenetic study.

OATP1B1 = target: T1, OATP1B1 (Homo sapiens, UniProt Q9Y6L6); conditions: cited from earlier work; for transport activity by OATP1B1: OATP1B1*1a and three common variants
T1 construct: expressed in transfected cells; host or cells: HEK293 cells (stably transfected); Xenopus oocytes
T1 sequence (Q9Y6L6 1-691): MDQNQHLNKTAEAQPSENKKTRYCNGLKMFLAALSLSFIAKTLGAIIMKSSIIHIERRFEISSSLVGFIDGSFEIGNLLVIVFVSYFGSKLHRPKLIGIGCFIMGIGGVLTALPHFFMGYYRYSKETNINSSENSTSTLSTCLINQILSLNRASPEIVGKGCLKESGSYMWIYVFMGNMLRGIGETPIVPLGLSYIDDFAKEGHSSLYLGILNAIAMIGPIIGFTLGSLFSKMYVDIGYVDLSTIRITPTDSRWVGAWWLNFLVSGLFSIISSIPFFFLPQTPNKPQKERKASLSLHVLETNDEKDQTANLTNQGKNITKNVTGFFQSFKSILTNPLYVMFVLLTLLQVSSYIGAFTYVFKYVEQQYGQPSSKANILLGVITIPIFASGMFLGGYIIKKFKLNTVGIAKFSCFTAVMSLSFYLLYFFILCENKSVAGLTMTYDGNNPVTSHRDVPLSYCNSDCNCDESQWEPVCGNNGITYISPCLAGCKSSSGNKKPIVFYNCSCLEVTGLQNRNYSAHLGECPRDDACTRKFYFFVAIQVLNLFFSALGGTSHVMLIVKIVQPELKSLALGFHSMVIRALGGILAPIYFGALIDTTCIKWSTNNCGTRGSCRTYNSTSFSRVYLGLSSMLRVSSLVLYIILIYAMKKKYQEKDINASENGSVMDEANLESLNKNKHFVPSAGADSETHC

[2] = after intra peritoneal administration of irinotecan; cited from earlier work
[3] = target: T2, SLCO1B1*15 (N130D and V174A) (Homo sapiens, UniProt Q9Y6L6, N130D/V174A); conditions: Xenopus oocytes, among the variants examined; cited from earlier work
T2 sequence (Q9Y6L6 1-691 N130D/V174A): T1 sequence (Q9Y6L6 1-691) with N130D, V174A

[4] = CPT-11 pharmacokinetics by SLCO1B1*5 genotype in patients; conditions: human, in vivo, intravenous
Excerpt: Six SNPs in ABCC2 were genotyped [−1549G>A, −1019A>G, −24C>T, 1249G>A, intron 27 −34C>T, 3972C>T] and haplotypes were estimated. Two SNPs in SLCO1B1 [*1b (388A>G) and *5 (521T>C)] were also genotyped.

[5] = cited from earlier work
[6] = cited from earlier work; remark: listed apart in the source

Compound: CCc1c2c(nc3ccc(OC(=O)N4CCC(NCCCCC(=O)O)CC4)cc13)-c1cc3c(c(=O)n1C2)COC(=O)[C@]3(O)CC [APC]
- AUC ratio APC/irinotecan in TT patients compared to CT and CC patients ([1]; 350 mg/m^2 IV irinotecan): Higher values of AUC ratios

Compound: CCc1c2c(nc3ccc(O)cc13)-c1cc3c(c(=O)n1C2)COC(=O)[C@]3(O)CC [SN-38, 7-ethyl-10-hydroxycamptothecin]
- transport activity by OATP1B1 (OATP1B1): transport activity for SN-38 was observed
- effect on SLCO1B1-mediated uptake of [(3)H]estrone-3-sulfate (OATP1B1): significant inhibitory effect
- tissue accumulation of SN-38 [2]: accumulate in the intestine
- transport activity of variant SLCO1B1*15 [3]: decreased transport activities
- AUC versus ABCC2 3972C>T genotype (TT compared to CT and CC) ([1]; 350 mg/m^2 IV irinotecan, patients with 6/6 and 6/7 UGT1A1 genotype (n=54)): No significant correlation

Compound: CCc1c2c(nc3ccc(O[C@@H]4O[C@H](C(=O)O)[C@@H](O)[C@H](O)[C@H]4O)cc13)-c1cc3c(c(=O)n1C2)COC(=O)[C@]3(O)CC [SN-38G, 10O-glucuronyl-SN-38]
- transport activity by OATP1B1 (OATP1B1): not transported

Compound: C[C@]12CC[C@@H]3c4ccc(OS(=O)(=O)O)cc4CC[C@H]3[C@@H]1CCC2=O [estrone-3-sulfate]
- transport activity of variant SLCO1B1*15 [3]: decreased transport activities

Compound: CCc1c2c(nc3ccc(OC(=O)N4CCC(N5CCCCC5)CC4)cc13)-c1cc3c(c(=O)n1C2)COC(=O)[C@]3(O)CC [irinotecan]
- AUC ([4]; 350 mg/m^2, patients with SLCO1B1*5 CT+CC genotype): 29500 ± 8800 ng·h/mL
- AUC ([4]; 350 mg/m^2, patients with SLCO1B1*5 TT genotype): 22300 ± 5100 ng·h/mL
- patients experiencing grade 3-4 neutropenia ([5]; both weekly and three-weekly regimens): 30-40%
- patients with grade 3-4 diarrhea ([5]; early single agent trials, dose limiting): about one third
- frequency of grade 3-4 diarrhea ([5]; three-weekly regimen): 19%
- mortality rate ([5]; three-weekly single agent regimen): 1.6%
- frequency of grade 3-4 diarrhea ([5]; weekly schedule): 36%
- mortality rate ([5]; weekly single agent regimen): 5.3%
- transport activity by OATP1B1 (OATP1B1): not transported
- AUC in ABCC2 3972 TT patients compared to CT and CC patients ([1]; 350 mg/m^2 IV dose of irinotecan, 64 patients): higher AUC values

Compound: CC[C@H](C)C(=O)O[C@H]1C[C@H](O)C=C2C=C[C@H](C)[C@H](CC[C@@H](O)C[C@@H](O)CC(=O)O)[C@H]21 [pravastatin]
- mean pravastatin AUC0-12 higher compared to non-carriers ([6]; heterozygous carriers of *15B (388A>G and 521T>C)): 93%
- mean pravastatin AUC0-12 higher compared to non-carriers ([6]; heterozygous carriers of *17 (-11187G>A, 388A>G and 521T>C)): 130%
- mean pravastatin AUC0-12 higher compared to reference genotype ([6]; subjects with 521TC genotype): 106%
- mean pravastatin AUC0-12 higher compared to reference genotype ([6]; subjects with -11187GA genotype): 98%
- transport activity of variant SLCO1B1*15 [3]: decreased transport activities

Source: patent publication US20090017452A1, “METHODS AND COMPOSITIONS RELATING TO THE PHARMACOGENETICS OF DIFFERENT GENE VARIANTS” (UNIVERSITY OF CHICAGO, priority 2004, published 2009)
